Data as given in US8053627B2, “Methods for treating demyelination disorders” (University of Chicago, priority 2005, dated 2011).

Key:
[1] = test system: EAE demyelinating lesions; test: EAE, CNS delivery of INF-γ at the recovery stage (doxycycline withdrawn at PID7); type: in vivo, mice
Text: Double transgenic mice that allow for temporally regulated delivery of INF-γ to the CNS (Lin et al., J Neurosci 24:10074-10083 (2004)) were used to assess the role of INF-γ in the pathogenesis of EAE. GFAP/tTA; TRE/IFN-γ double transgenic mice, as described in Example 1 were used to determine the effect of INF-γ on the demyelination caused by EAE. All mice were fed doxycycline from the day of conception to repress the expression of INF-γ, and were immunized with myelin oligodendrocyte protein (MOG35-55) to induce EAE. AT day 7 postimmunization (PID7), doxycycline was withdrawn from the experimental group (PID7 DOX−).
The level of INF-γ was determined in the control (DOX+) and the PID7 DOX− mice using an ELISA immunoassay as described in Example 1, and the severity of the disease was assessed as a function of a clinical score. Clinical severity scores were recorded daily according to a 0-5 point scale, where 0=healthy, 1=flaccid tail, 2=ataxia and/or paresis of hind limbs, 3=paralysis of hind limbs and/or paresis of forelimbs, 4=tetraparalysis, and 5=moribund or dead.
The spinal cord from DOX+ and DOX− animals with EAE was immunostained for MBP, and the remyelination of axons was evaluated. The number of oligodendrocytes was determined in the spine from DOX+ and DOX− mice as the number of CC1 positive cells. Axonal damage was evaluted by immunostaining of non-phosphorylated neurofilament-H. Antibodies to non-phosphorylated neurofilament-H were SM132 diluted to 1:1000 and obtained from Sternberger Monoclonals.
INF-γ is known to induce MHC antigens and activate macrophages and T lymphocytes. The inflammatory effect of INF-γ was studied in the CNS during remyelination by determining the infiltration of T cells and macrophages, and measuring the expression of MHC-1, TNF-a, IL-2, IL-12 and IL-17. Immunohistochemistry was performed in tissues from the DOX+ and DOX− mice with EAE as described in Example 4. Experimental procedures were followed as described in the examples above.

[2] = test system: oligodendrocytes and myelin; test: IFN-γ-overexpressing mice crossed to PLP/SOCS1 mice, clinical and histological evaluation at postnatal day 21; type: in vivo; details: for oligodendrocyte density: corpus callosum, postnatal day 21; for G ratio (axon diameter/fiber diameter ratio): hypomyelination defined as G ratio>0.8
Procedure: IFN-γ-overexpressing mice were crossed to the PLP/SOCS1 mice in double-transgenic, (MBP/IFN-γ×PLP/SOCS1) and triple-transgenic (GFAP/tTA×TRE/IFN-γ×PLP/SOCS1) mating systems. MBP/IFN-γ×PLP/SOCS1 (172×PLP/SOCS1) mating was performed according to a standard mating protocol. The GFAP/tTA×TRE/IFN-γ×PLP/SOCS1 matings were performed in a 2-step mating process: GFAP/tTA mice were initially crossed to PLP/SOCS1 mice, and double-positive (184×PLP/SOCS1) offspring were then crossed to the TRE/IFN-γ lines 110 and 67, separately. This second mating step was performed according to the previously described “tet-off” protocol. Doxycycline 0.05 mg/ml (Sigma-Aldich) was added to the water of impregnated female mice until embryonic day 14, after which the animals were switched back to normal water, thereby allowing initiation of IFN-γ transcription, which peaks during the postnatal period (Lin et al., 2005).
The litters of the mating systems (F1 generation) were examined daily and sacrificed at postnatal day 21. Clinical evaluation included behavioral observation and challenged ladder walking to elicit tremor. Histological examination included quantitation of the number and density of oligodendrocytes and examination of the myelination patterns. Brain tissue was simultaneously obtained from each animal at the time of sacrifice to verify and measure the expression of IFN-γ and Flag-SOCS1 (see below). The clinical and histological findings were subsequently stratified according to genotype. All animal procedures were conducted in compliance with the National Institutes of Health Guide for Care and Use of Laboratory Animals and were approved by the Institutional Animal Care and Use Committee at The University of Chicago.
Oligodendrocyte cell density was assessed digitally using Axiovision software, at postnatal day 21, as previously described (Lin et al., 2005). The brains were sectioned sagittally through the corpus callosum dividing the brain in two symmetrical halves. Ten frozen sections from each half were prepared at 7 μm thickness, and numbered in the sequence of their preparation. The brains of three animals per study group were prepared in this fashion. Following the CC1 immunostaining the corresponding area of corpus callosum of each section was digitally selected and the corresponding total area obtained. CC1 cell counting was performed manually within the selected areas of each section, and the number of CC1 positive cells per square area (mm^2) calculated. The results were presented as mean±SD of CC1 (+) cells/mm^2 with n=3 animals per study group.
Myelination patterns of the examined animals were assessed at postnatal day 21 by calculating the percent unmyelinated axons and ratio of the axon/fiber diameters (G ratio) with Image J software (National Institutes of Health, Bethesda, Md.) as previously described (Lin at al., 2005). The brains were sectioned sagittally through the corpus callosum dividing the brain in two symmetrical halves. Approximately 2 mm^3 samples from the genu and the splenum of both halves of corpus callosum were obtained using a Wild M3C stereotype microscope. The orientation of the specimen in the resin blocks yielding axonal cross-sections (well seen myelin rings) was chosen, and established by toluedine blue staining of a few sample sections. The resin blocks with the chosen orientation were processed for electron microscope examination. Randomly selected areas were examined and ten representative pictures from both genu and splenum corpus callosum were obtained at 12000× magnification. The number of unmyelinated axons was assessed by manual counting of axons that lacked myelin and were encircled solely by their own plasma membrane. All unmyelinated axons present in the representative images were counted, and their percentage calculated by examining a total of five hundred axons per tissue sample. […]

[3] = DOX− vs DOX+, spinal cord PID50

IFN-γ: pleotropic cytokine secreted by activated T lymphocytes and natural killer cells; delivered to the CNS by transgene or added as recombinant protein
number of CC1 positive oligodendrocytes ([1]; DOX− animals, PID50): significantly decreased
mice that developed hind limb paralysis ([1]; DOX− mice, PID17): 24 of 30
mean maximum clinical score ([1]; DOX− mice, PID17, 0-5 scale): 2.69±0.69
clinical score ([1]; DOX− mice, PID50): ~2
mice continuing to suffer from hind limb paralysis ([1]; DOX− mice, PID50): 12/24
axonal damage (non-phosphorylated neurofilament-H immunostaining) ([1]; DOX− vs DOX+): not affected
level of MBP in the lumbar spinal cord (immunostaining) ([1]; DOX− vs DOX+ mice): notably reduced
expression of IL-17 (real time PCR) [1, 3]: decrease
expression of MHC-1, TNF-a, LL2 and IL-12 (real time PCR) [1, 3]: increased
expression of iNOs and IL-23 (real time PCR) [1, 3]: did not alter
number of infiltrating T cells and macrophages in the lumbar spinal cord (CD3, CD11b) ([1]; mouse, in vivo): did not increase significantly
Incidence of tremor ([2]; 172 × PLP/SOCS1 littermates, ten mice per group): 0%
oligodendrocytes lost ([2]; 184/67 system): approximately 40%
percentage of unmyelinated axons ([2]; 184/67 system): 57±7%
oligodendrocyte density ([2]; 184/67 system): 79±9 CC1 (+) cells/mm^2
G ratio (axon diameter/fiber diameter ratio) ([2]; 184/67 system): 0.95±0.04
oligodendrocytes lost ([2]; 184/110 system): approximately 20%
percentage of unmyelinated axons ([2]; 184/110 system): 41%±6
oligodendrocyte density ([2]; 184/110 system): 115±8 CC1 (+) cells/mm^2
G ratio (axon diameter/fiber diameter ratio) ([2]; 184/110 system): 0.89±0.02
MHC class I molecule expression (immunostaining) ([2]; MBP/IFN-γ and MBP/IFN-γ×PLP/SOCS1 brains): upregulated expression
